ChEMBL document CHEMBL4765469, “2-((3,5-Dinitrobenzyl)thio)quinazolinones: Potent Antimycobacterial Agents Activated by Deazaflavin (F)-Dependent Nitroreductase (Ddn)” (J Med Chem, 2021)
pIC50: −log10 of the molar value. ≈ marks a conversion by molar mass, not a printed value.

How the values were obtained:
[1] = tested on: Mycobacterium tuberculosis; assay: Antitubercular activity against Mycobacterium tuberculosis H37Rv ATCC 27294 grown under Middlebrook 7H9 Broth assessed as inhibition of all visible growth incubated for 7 to 14 days; assay type: functional; details: time 7-14 day
[2] = Cytotoxicity in human MRC5 cells by neutral red uptake assay; assay type: cell-based
[3] = (§1) Inhibition of Mycobacterium tuberculosis thymidylate kinase in presence of ATP, dTMP, NADH and phosphoenol pyruvate by spectrophotometric assay
[4] = tested on: Mycobacterium tuberculosis; assay: Antitubercular activity against Mycobacterium tuberculosis 14A1 deficient in nitroreductase rv3547 assessed as inhibition of all visible growth grown under 7H9/ glucose liquid culture incubated for 7 to 14 days; assay type: functional; details: time 7-14 day
[5] = tested on: Mycobacterium tuberculosis; assay: Antitubercular activity against Mycobacterium tuberculosis H37Rv ATCC 27294 grown under GAST/Fe medium assessed as inhibition of all visible growth incubated for 7 to 14 days; assay type: functional; details: time 7-14 day
[6] = tested on: Mycobacterium tuberculosis; assay: Ratio of MIC for antitubercular activity against Mycobacterium tuberculosis H37Rv ATCC 27294 grown under 7H9/ glucose liquid culture in presence of BSA to MIC for antitubercular activity against Mycobacterium tuberculosis H37Rv ATCC 27294 grown under 7H9/ glucose liquid culture; assay type: functional; details: read-out: MIC>99
[7] = tested on: Mycobacterium tuberculosis; assay: Antitubercular activity against Mycobacterium tuberculosis H37Rv ATCC 27294 grown under 7H9/ glucose liquid culture in presence of BSA assessed as inhibition of all visible growth incubated for 7 to 14 days; assay type: functional; details: time 7-14 day
[8] = tested on: Mycobacterium tuberculosis; assay: Antitubercular activity against Mycobacterium tuberculosis H37Rv ATCC 27294 grown under 7H9/ADC assessed as inhibition of all visible growth incubated for 7 to 14 days; assay type: functional; details: time 7-14 day
[9] = Genotoxicity in Salmonella typhimurium TA100 up to 349 uM incubated for 48 hrs in presence of rat liver S9 fraction by Ames test; assay type: toxicity, subcellular; details: salmonella enterica subsp. enterica serovar typhimurium, s9, 48 h
[10] = Genotoxicity in Salmonella typhimurium TA98 up to 349 uM incubated for 48 hrs in presence of rat liver S9 fraction by Ames test; assay type: toxicity, subcellular; details: salmonella enterica subsp. enterica serovar typhimurium, s9, 48 h
[11] = Genotoxicity in Salmonella typhimurium TA98 up to 349 uM incubated for 48 hrs in absence of rat liver S9 fraction by Ames test; assay type: toxicity; details: salmonella enterica subsp. enterica serovar typhimurium, s9, 48 h
[12] = Genotoxicity in Salmonella typhimurium TA100 up to 349 uM incubated for 48 hrs in absence of rat liver S9 fraction by Ames test; assay type: toxicity; details: salmonella enterica subsp. enterica serovar typhimurium, s9, 48 h
[13] = tested on: Mycobacterium tuberculosis; assay: Antitubercular activity against Mycobacterium tuberculosis H37Rv; assay type: functional
[14] = tested on: Mycobacterium tuberculosis; assay: as §1
[15] = Inhibition of Mycobacterium tuberculosis thymidylate kinase

SMILES	MIC99 [1] [µM]	CC50 [2] [µM]	MIC99 [5] [µM]	MIC ratio, with BSA / without BSA [6] [µM]	MIC99 [7] [µM]	other results
O=c1[nH]c(SCc2ccc([N+](=O)[O-])cc2)nc2ccccc12	≥ 50	> 64	–	–	–	–
O=c1[nH]c([S+]([O-])Cc2cc([N+](=O)[O-])cc([N+](=O)[O-])c2)nc2ccccc12 (stereo not given)	50 (≈ 18.7 µg/mL)	> 64	–	–	–	pIC50 [3]: 3.66
O=c1[nH]c(SCc2cc([N+](=O)[O-])cc([N+](=O)[O-])c2)nc2cccc(Cl)c12	≥ 50	> 64	–	–	–	–
O=c1[nH]c(SCc2cc([N+](=O)[O-])cc([N+](=O)[O-])c2)nc2cccnc12	19 (≈ 6.83 µg/mL)	> 64	12.5 (≈ 4.49 µg/mL)	> 2.6	> 50	MIC99 [4]: 50 µM (≈ 18 µg/mL)
O=c1[nH]c(SCc2ccc(-c3ccccc3)cc2)nc2ccccc12	> 50	> 64	–	–	–	–
N#Cc1c(-c2cccc(Br)c2)nc(SCc2ccccc2)[nH]c1=O	25 (≈ 9.96 µg/mL)	> 36	–	–	–	pIC50 [3]: 4.31
O=c1[nH]c(SCc2ccc([N+](=O)[O-])cc2[N+](=O)[O-])nc2ccccc12	> 50	> 64	–	–	–	–
O=c1[nH]c(SCc2cc([N+](=O)[O-])cc([N+](=O)[O-])c2)nc2ccccc12	0.6 (≈ 0.215 µg/mL)	> 64	0.78 (≈ 0.28 µg/mL)	2.6	1.56	MIC99 [8]: 2.3 µM (≈ 0.824 µg/mL); MIC99 [4]: 12.5 µM (≈ 4.48 µg/mL); Activity [9]: Non-Toxic; Activity [10]: Non-Toxic; Activity [11]: Toxic; pIC50 [3]: 3.92; Activity [12]: Non-Toxic
Oc1nc(SCc2cccc(Cl)c2)nc2ccccc12	3.13 (≈ 0.948 µg/mL)	> 64	19 (≈ 5.75 µg/mL)	> 16	> 50	MIC99 [8]: > 50 µM
Cc1ccc2nc(SCc3cc([N+](=O)[O-])cc([N+](=O)[O-])c3)[nH]c(=O)c2c1	1.56 (≈ 0.581 µg/mL)	> 64	1.56 (≈ 0.581 µg/mL)	4	6.25	MIC99 [4]: > 50 µM
O=c1[nH]c(SCc2cc([N+](=O)[O-])cc(C(F)(F)F)c2)nc2ccccc12	> 50	> 64	–	–	–	–
O=c1[nH]c(SCc2cc([N+](=O)[O-])cc([N+](=O)[O-])c2)nc2ccc(N3CCCCC3)cc12	> 50	> 64	–	–	–	–
O=c1[nH]c(SCc2c([N+](=O)[O-])cccc2[N+](=O)[O-])nc2ccccc12	> 50	> 64	–	–	–	–
O=c1[nH]c(SCc2cc([N+](=O)[O-])cc([N+](=O)[O-])c2)nc2ccc(Cl)cc12	0.78 (≈ 0.306 µg/mL)	> 64	0.2 (≈ 0.0786 µg/mL)	4	3.13	MIC99 [8]: 4.7 µM (≈ 1.85 µg/mL)
Cc1ccc(CSc2nc(O)c3ccccc3n2)cc1	> 50	> 64	–	–	–	–
O=c1[nH]c(SCc2cccc([N+](=O)[O-])c2)nc2ccccc12	> 50	> 64	–	–	–	–
CN(C)c1ccc2nc(SCc3cc([N+](=O)[O-])cc([N+](=O)[O-])c3)[nH]c(=O)c2c1	> 50	14	–	–	–	–
O=c1[nH]c(SCc2cc([N+](=O)[O-])cc([N+](=O)[O-])c2)nc2cnccc12	> 50	> 64	–	–	–	–
O=c1[nH]c(SCc2ccccc2Cl)nc2ccccc12	2.3 (≈ 0.696 µg/mL)	> 65	37 (≈ 11.2 µg/mL)	> 21.7	> 50	MIC99 [8]: > 50 µM
O=C(CSc1nc2ccccc2c(=O)[nH]1)NC1CCCCC1	–	–	–	–	–	MIC [13]: 0.3 µM
CCOC(=O)c1c(-c2ccccc2)oc2ccc(O)c(CN3CCC(C)CC3)c12	–	–	–	–	–	MIC [13]: 1 µg/mL
O=C(CSc1nc2c(F)cccc2c(=O)[nH]1)NC1CCC(F)(F)CC1	–	–	–	–	–	MIC [13]: 0.09 µM
O=c1[nH]c(SCc2ccccc2[N+](=O)[O-])nc2ccccc12	12.5 (≈ 3.92 µg/mL)	> 64	25 (≈ 7.83 µg/mL)	> 4	> 50	MIC99 [8]: > 50 µM
CC1CCN(Cc2c(O)ccc3oc4c5ccccc5oc(=O)c4c23)CC1	–	–	–	–	–	MIC [13]: 0.125 µg/mL
O=c1[nH]c(SCc2ccc(Cl)c(Cl)c2)nc2ccccc12	> 50	> 64	–	–	–	–

SMILES	MIC99 [1] [µM]	CC50 [2] [µM]	MIC99 [5] [µM]	MIC ratio, with BSA / without BSA [6] [µM]	MIC99 [7] [µM]	other results
O=c1[nH]c(SCc2cccs2)nc2ccccc12	> 50	> 64	–	–	–	–
CCOC(=O)C1=C(NC(=O)c2c(F)c(F)c(F)c(F)c2F)OC2CN(CC)CCC12 (stereo not given)	–	–	–	–	–	MIC [13]: 0.69 µM
CN1CCN(c2ccc3nc(SCc4cc([N+](=O)[O-])cc([N+](=O)[O-])c4)[nH]c(=O)c3c2)CC1	9.4 (≈ 4.29 µg/mL)	49	9.4 (≈ 4.29 µg/mL)	1	9.4	MIC99 [4]: 37 µM (≈ 16.9 µg/mL)
O=c1[nH]c(SCc2cc([N+](=O)[O-])cc([N+](=O)[O-])c2)nc2ccc(F)cc12	1.2 (≈ 0.452 µg/mL)	> 64	1.2 (≈ 0.452 µg/mL)	52	6.25	MIC99 [4]: 6.25 µM (≈ 2.35 µg/mL)
O=[N+]([O-])c1ccc2c(c1)Cc1ccccc1-2 [2-NITROFLUORENE]	–	–	–	–	–	Activity [11]: Toxic
O=c1[nH]c(SCc2cc([N+](=O)[O-])cc([N+](=O)[O-])c2)nc2ccc(N3CCOCC3)cc12	4.7 (≈ 2.08 µg/mL)	> 64	3.13 (≈ 1.39 µg/mL)	0.66	3.13	MIC99 [4]: 19 µM (≈ 8.43 µg/mL)
Oc1nc(SCc2ccc(Cl)cc2)nc2ccccc12	> 50	> 64	–	–	–	–
O=c1[nH]c(SCc2ccccc2)nc2ccccc12	12.5 (≈ 3.35 µg/mL)	> 64	19 (≈ 5.1 µg/mL)	> 4	> 50	MIC99 [8]: > 50 µM
CSc1nc(-c2cccc(Br)c2)c(C#N)c(=O)[nH]1	25 (≈ 8.05 µg/mL)	> 64	–	–	–	pIC50 [3]: 4.09
O=c1[nH]c(SCc2cc([N+](=O)[O-])cc([N+](=O)[O-])c2)nc2c(Cl)cccc12	> 50	> 64	–	–	–	–
O=c1[nH]c(SCc2cc([N+](=O)[O-])cc([N+](=O)[O-])c2)nc2ncccc12	≥ 50	> 64	–	–	–	–
Cn1c(SCc2cc([N+](=O)[O-])cc([N+](=O)[O-])c2)nc2ccccc2c1=O	1.56 (≈ 0.581 µg/mL)	> 64	0.39 (≈ 0.145 µg/mL)	2	3.13	MIC99 [8]: 3.13 µM (≈ 1.17 µg/mL)
NNC(=O)c1ccncc1	–	–	–	–	–	MIC>99 [14]: 0.15 µM
CCOC(=O)C1=C(NC(=O)c2c(F)c(F)c(F)c(F)c2F)OC(C(N)=O)C1C (stereo not given)	–	–	–	–	–	MIC [13]: 0.5 µM
O=c1[nH]c(SCc2cc([N+](=O)[O-])cc([N+](=O)[O-])c2)nc2ccc(Br)cc12	3.13 (≈ 1.37 µg/mL)	> 64	3.13 (≈ 1.37 µg/mL)	11.8	37	MIC99 [4]: > 50 µM
O=c1[nH]c(SCc2ccc([N+](=O)[O-])o2)nc2ccccc12	> 50	35	–	–	–	–
O=c1[nH]c(SCc2ccc([N+](=O)[O-])s2)nc2ccccc12	350 (≈ 112 µg/mL)	> 64	–	–	–	–
COc1ccccc1CSc1nc2ccccc2c(=O)[nH]1	> 50	–	–	–	–	–
O=c1[nH]c(SCc2cc([N+](=O)[O-])cc([N+](=O)[O-])c2)nc2cc(Cl)ccc12	2.3 (≈ 0.903 µg/mL)	> 64	0.72 (≈ 0.283 µg/mL)	10.8	25	MIC99 [8]: 25 µM (≈ 9.82 µg/mL)
N#Cc1c(-c2cccc(Br)c2)nc(SCc2cc([N+](=O)[O-])cc([N+](=O)[O-])c2)[nH]c1=O	> 64	> 64	–	–	–	pIC50 [3]: 5.37
COc1ccc(CSc2nc3ccccc3c(=O)[nH]2)cc1	> 50	> 64	–	–	–	–
COc1cccc(-c2cc(SC)c(C#N)c(=O)[nH]2)c1	–	–	–	–	–	MIC [13]: > 64 µM; pIC50 [15]: 5.82
CSc1cc(-c2ccccc2)nc(O)c1C#N	–	–	–	–	–	MIC [13]: > 64 µM
COc1cccc(CSc2nc3ccccc3c(=O)[nH]2)c1	0.78 (≈ 0.233 µg/mL)	> 64	50 (≈ 14.9 µg/mL)	> 64	> 50	MIC99 [8]: > 50 µM
O=c1[nH]c(SCc2cc([N+](=O)[O-])cc([N+](=O)[O-])c2)nc2ccncc12	> 50	> 64	–	–	–	–
